The NIST ThermoML archive (doi:10.1016/j.tca.2009.10.001)
Numbers after ± are expanded uncertainties.

Experiment: xn = mol fraction of the nth substance listed
Settings: 101 kPa, Liquid; for viscosity: Capillary tube (Ostwald / Ubbelohde) method; for speed of sound: Linear variable-path acoustic interferometer; for mass density: Pycnometric method

CCCC#N [butanenitrile] + Cc1ccccc1
Settings | mass density, 298.15 K [kg/m3] | mass density, 303.15 K [kg/m3] | mass density, 308.15 K [kg/m3] | speed of sound, 298.15 K [m/s] | speed of sound, 303.15 K [m/s] | speed of sound, 308.15 K [m/s] | viscosity, 298.15 K [mPa·s] | viscosity, 303.15 K [mPa·s] | viscosity, 308.15 K [mPa·s]
x2 = 0 | 784.7 ± 0.3 | 780.3 ± 0.4 | 775.9 ± 0.4 | 1271.4 ± 1.8 | 1252.2 ± 1.8 | 1233.9 ± 1.7 | 0.5463 ± 0.0061 | 0.5255 ± 0.006 | 0.5049 ± 0.0059
x2 = 0.082 | 792.7 ± 0.3 | 788.1 ± 0.3 | 783.6 ± 0.4 | 1276.3 ± 1.7 | 1256.5 ± 1.7 | 1237.9 ± 1.7 | 0.5484 ± 0.006 | 0.5265 ± 0.0059 | 0.5053 ± 0.0058
x2 = 0.1673 | 800.8 ± 0.3 | 796.1 ± 0.3 | 791.5 ± 0.3 | 1280.6 ± 1.7 | 1260.4 ± 1.7 | 1241.7 ± 1.7 | 0.5504 ± 0.006 | 0.5276 ± 0.0059 | 0.5058 ± 0.0058
x2 = 0.2537 | 808.6 ± 0.3 | 803.8 ± 0.3 | 799.2 ± 0.3 | 1284.9 ± 1.7 | 1264.5 ± 1.7 | 1245.4 ± 1.7 | 0.5522 ± 0.0059 | 0.5287 ± 0.0058 | 0.5064 ± 0.0057
x2 = 0.3488 | 816.8 ± 0.3 | 812 ± 0.3 | 807.4 ± 0.3 | 1289.2 ± 1.7 | 1268.6 ± 1.7 | 1249.3 ± 1.6 | 0.5541 ± 0.0059 | 0.5299 ± 0.0058 | 0.5069 ± 0.0057
x2 = 0.4436 | 824.5 ± 0.3 | 819.7 ± 0.3 | 815.1 ± 0.3 | 1292.6 ± 1.6 | 1272.2 ± 1.6 | 1252.5 ± 1.6 | 0.5559 ± 0.0058 | 0.5309 ± 0.0057 | 0.5074 ± 0.0056
x2 = 0.5435 | 832.2 ± 0.3 | 827.3 ± 0.3 | 822.8 ± 0.3 | 1294.9 ± 1.6 | 1274.6 ± 1.6 | 1254.7 ± 1.6 | 0.5576 ± 0.0058 | 0.5317 ± 0.0057 | 0.5079 ± 0.0056
x2 = 0.651 | 839.8 ± 0.3 | 834.9 ± 0.3 | 830.4 ± 0.3 | 1296.7 ± 1.6 | 1276.5 ± 1.6 | 1256.5 ± 1.6 | 0.5592 ± 0.0057 | 0.5324 ± 0.0056 | 0.5082 ± 0.0055
x2 = 0.759 | 846.9 ± 0.3 | 841.9 ± 0.3 | 837.4 ± 0.3 | 1298 ± 1.6 | 1277.4 ± 1.5 | 1257.8 ± 1.5 | 0.5607 ± 0.0057 | 0.5329 ± 0.0056 | 0.5084 ± 0.0055
x2 = 0.8771 | 854.1 ± 0.3 | 849.1 ± 0.3 | 844.6 ± 0.3 | 1298.7 ± 1.5 | 1278.3 ± 1.5 | 1259 ± 1.5 | 0.5622 ± 0.0056 | 0.5337 ± 0.0055 | 0.5088 ± 0.0054

CCC#N [propanenitrile] + Cc1ccccc1
Settings | mass density, 298.15 K [kg/m3] | mass density, 303.15 K [kg/m3] | mass density, 308.15 K [kg/m3] | speed of sound, 298.15 K [m/s] | speed of sound, 303.15 K [m/s] | speed of sound, 308.15 K [m/s] | viscosity, 298.15 K [mPa·s] | viscosity, 303.15 K [mPa·s] | viscosity, 308.15 K [mPa·s]
x2 = 0 | 775.4 ± 0.3 | 769.9 ± 0.3 | 765.2 ± 0.4 | 1252.4 ± 1.8 | 1232.7 ± 1.7 | 1213.7 ± 1.7 | 0.4107 ± 0.0055 | 0.3991 ± 0.0054 | 0.3822 ± 0.0053
x2 = 0.0668 | 784.4 ± 0.3 | 778.8 ± 0.3 | 773.9 ± 0.3 | 1257.2 ± 1.7 | 1237 ± 1.7 | 1217.6 ± 1.7 | 0.4222 ± 0.0055 | 0.4087 ± 0.0054 | 0.3907 ± 0.0053
x2 = 0.1397 | 793.6 ± 0.3 | 787.9 ± 0.3 | 783 ± 0.3 | 1262.2 ± 1.7 | 1241.7 ± 1.7 | 1222 ± 1.7 | 0.4346 ± 0.0055 | 0.4194 ± 0.0054 | 0.4004 ± 0.0054
x2 = 0.2164 | 802.6 ± 0.3 | 796.8 ± 0.3 | 791.9 ± 0.3 | 1267.3 ± 1.7 | 1246.5 ± 1.7 | 1226.7 ± 1.7 | 0.4476 ± 0.0055 | 0.4306 ± 0.0054 | 0.4106 ± 0.0054
x2 = 0.3011 | 811.7 ± 0.3 | 806 ± 0.3 | 801.1 ± 0.3 | 1272.9 ± 1.7 | 1252 ± 1.7 | 1232 ± 1.6 | 0.4617 ± 0.0055 | 0.4432 ± 0.0054 | 0.422 ± 0.0054
x2 = 0.3905 | 820.5 ± 0.3 | 814.9 ± 0.3 | 810.1 ± 0.3 | 1278.2 ± 1.6 | 1257.1 ± 1.6 | 1237.1 ± 1.6 | 0.4765 ± 0.0055 | 0.4561 ± 0.0054 | 0.4341 ± 0.0054
x2 = 0.4917 | 829.4 ± 0.3 | 823.9 ± 0.3 | 819.1 ± 0.3 | 1283 ± 1.6 | 1262.1 ± 1.6 | 1242.1 ± 1.6 | 0.4927 ± 0.0055 | 0.4702 ± 0.0055 | 0.4475 ± 0.0054
x2 = 0.5989 | 837.7 ± 0.3 | 832.3 ± 0.3 | 827.6 ± 0.3 | 1287.1 ± 1.6 | 1266.2 ± 1.6 | 1246.3 ± 1.6 | 0.5082 ± 0.0055 | 0.4842 ± 0.0055 | 0.4606 ± 0.0054
x2 = 0.7174 | 845.7 ± 0.3 | 840.5 ± 0.3 | 835.8 ± 0.3 | 1291.2 ± 1.6 | 1270.4 ± 1.6 | 1250.5 ± 1.5 | 0.5247 ± 0.0055 | 0.4989 ± 0.0055 | 0.4748 ± 0.0054
x2 = 0.854 | 853.7 ± 0.3 | 848.6 ± 0.3 | 844 ± 0.3 | 1295.2 ± 1.5 | 1274.5 ± 1.5 | 1255.2 ± 1.5 | 0.5434 ± 0.0056 | 0.5158 ± 0.0055 | 0.4911 ± 0.0054
